Test results from patent US11492405B2, “Reducing systemic regulatory t cell levels or activity for treatment of disease and injury of the CNS” (Yeda Research and Development Co. Ltd, priority 2014, dated 2022).
“Also recorded” adds a separate entry of the source.

How the values were obtained:
[1] = tested on: 5XFAD AD-Tg mice; test: Aβ plaque quantitation (immunohistochemistry) in 5XFAD AD-Tg mice; assay type: in vivo, mouse
Description: Tissue processing and immunohistochemistry were performed on paraffin embedded sectioned mouse (6 μm thick) and human (10 μm thick) brains. For human ICAM-1 staining, primary mouse anti-ICAM (1:20 Abcam; ab2213) antibody was used. Slides were incubated for 10 min with 3% H2O2, and a secondary biotin-conjugated anti-mouse antibody was used, followed by biotin/avidin amplification with Vectastain ABC kit (Vector Laboratories). Subsequently, 3,3′-diaminobenzidine (DAB substrate) (Zytomed kit) was applied; slides were dehydrated and mounted with xylene-based mounting solution. For tissue stainings, mice were transcardially perfused with PBS prior to tissue excision and fixation. CP tissues were isolated under a dissecting microscope (Stemi DV4; Zeiss) from the lateral, third, and fourth ventricles of the brain. For whole mount CP staining, tissues were fixated with 2.5% paraformaldehyde (PFA) for 1 hour at 4° C., and subsequently transferred to PBS containing 0.05% sodium azide. Prior to staining, the dissected tissues were washed with PBS and blocked (20% horse serum, 0.3% Triton X-100, and PBS) for 1 h at room temperature. Whole mount staining with primary antibodies (in PBS containing 2% horse serum and 0.3% Triton X-100), or secondary antibodies, was performed for 1 h at room temperature. Each step was followed by three washes in PBS. The tissues were applied to slides, mounted with Immu-mount (9990402, from Thermo Scientific), and sealed with cover-slips. For staining of sectioned brains, two different tissue preparation protocols (paraffin embedded or microtomed free-floating sections) were applied, as previously described (Baruch et al, 2013; Kunis et al, 2013). […] Microscopic analysis, was performed using a fluorescence microscope (E800; Nikon) or laser-scanning confocal microscope (Carl Zeiss, Inc.). The fluorescence microscope was equipped with a digital camera (DXM 1200F; Nikon), and with either a 20×NA 0.50 or 40×NA 0.75 objective lens (Plan Fluor; Nikon). […] For quantification of staining intensity, total cell and background staining was measured using ImageJ software (NIH), and intensity of specific staining was calculated, as previously described (Burgess et al, 2010). […]
From each brain, 6 μm coronal slices were collected, and eight sections per mouse, from four different pre-determined depths throughout the region of interest (dentate gyrus or cerebral cortex) were immunostained. […]

[2] = tested on: 5XFAD AD-Tg mice; test: Soluble Aβ (sAβ) ELISA of cerebral brain parenchyma in AD-Tg mice; assay type: in vivo, mouse
Description: Inhibition of p300 in mice was performed similarly to previously described (Liu et al, 2013). p300i (C646; Tocris Bioscience) was dissolved in DMSO and injected i.p. daily (8.9 mg kg^−1 d^−1, i.p.) for 1 week. Vehicle-treated mice were similarly injected with DMSO.
Tissue homogenization and sAβ protein extraction was performed as previously described (Schmidt et al, 2005). Briefly, cerebral brain parenchyma was dissected and snap-frozen and kept at −80° C. until homogenization. Proteins were sequentially extracted from samples to obtain separate fractions containing proteins of differing solubility. Samples were homogenized in 10 volumes of ice-cold tissue homogenization buffer, containing 250 mM of sucrose, 20 mM of Tris base, 1 mM of ethylenediaminetetraacetic acid (EDTA), and 1 mM of ethylene glycol tetraacetic acid (pH 7.4), using a ground glass pestle in a Dounce homogenizer. After six strokes, the homogenate was mixed 1:1 with 0.4% diethylamine (DEA) in a 100-mM NaCl solution before an additional six strokes, and then centrifuged at 135,000 g at 4° C. for 45 min. The supernatant (DEA-soluble fraction containing extracellular and cytosolic proteins) was collected and neutralized with 10% of 0.5M of Tris-HCl (pH 6.8). Aβ1-40 and Aβ1-42 were individually measured by enzyme-linked immunosorbent assay (ELISA) from the soluble fraction using commercially available kits (Biolegend; #SIG-38954 and #SIG-38956, respectively) according to the manufacturer instructions.

[3] = tested on: aged mice (18 months); test: p300 inhibition in aged mice, flow cytometry of spleen and CP; assay type: in vivo, mouse; details: p300i 8.9 mg/kg/d i.p. for 1 week vs DMSO, examined a day after cessation
Description: Mice were transcardially perfused with PBS, and tissues were treated as previously described (Baruch et al, 2013). Brains were dissected and the different brain regions were removed under a dissecting microscope (Stemi DV4; Zeiss) in PBS, and tissues were dissociated using the gentleMACS™ dissociator (Miltenyi Biotec). Choroid plexus tissues were isolated from the lateral, third and fourth ventricles of the brain, incubated at 37° C. for 45 min in PBS (with Ca^2+/Mg^2+) containing 400 U/ml collagenase type IV (Worthington Biochemical Corporation), and then manually homogenized by pipetting. Spleens were mashed with the plunger of a syringe and treated with ACK (ammonium chloride potassium) lysing buffer to remove erythrocytes. In all cases, samples were stained according to the manufacturers' protocols. All samples were filtered through a 70 μm nylon mesh, and blocked with anti-Fc CD16/32 (1:100; BD Biosciences). For intracellular staining of IFN-γ, the cells were incubated with […] (10 ng/ml; Sigma-Aldrich) and ionomycin (250 ng/ml; Sigma-Aldrich) for 6 h, and Brefeldin-A (10 μg/ml; Sigma-Aldrich) was added for the last 4 h. Intracellular labeling of cytokines was done with BD Cytofix/Cytoperm™ Plus fixation/permeabilization kit (cat. no. 555028). […] Cells were analyzed on an LSRII cytometer (BD Biosciences) using FlowJo software. […]

[4] = target: p300 (Mus musculus, UniProt B2RWS6); details: Liu et al, 2013; cited from earlier work
Sequence of p300 (B2RWS6 whole entry): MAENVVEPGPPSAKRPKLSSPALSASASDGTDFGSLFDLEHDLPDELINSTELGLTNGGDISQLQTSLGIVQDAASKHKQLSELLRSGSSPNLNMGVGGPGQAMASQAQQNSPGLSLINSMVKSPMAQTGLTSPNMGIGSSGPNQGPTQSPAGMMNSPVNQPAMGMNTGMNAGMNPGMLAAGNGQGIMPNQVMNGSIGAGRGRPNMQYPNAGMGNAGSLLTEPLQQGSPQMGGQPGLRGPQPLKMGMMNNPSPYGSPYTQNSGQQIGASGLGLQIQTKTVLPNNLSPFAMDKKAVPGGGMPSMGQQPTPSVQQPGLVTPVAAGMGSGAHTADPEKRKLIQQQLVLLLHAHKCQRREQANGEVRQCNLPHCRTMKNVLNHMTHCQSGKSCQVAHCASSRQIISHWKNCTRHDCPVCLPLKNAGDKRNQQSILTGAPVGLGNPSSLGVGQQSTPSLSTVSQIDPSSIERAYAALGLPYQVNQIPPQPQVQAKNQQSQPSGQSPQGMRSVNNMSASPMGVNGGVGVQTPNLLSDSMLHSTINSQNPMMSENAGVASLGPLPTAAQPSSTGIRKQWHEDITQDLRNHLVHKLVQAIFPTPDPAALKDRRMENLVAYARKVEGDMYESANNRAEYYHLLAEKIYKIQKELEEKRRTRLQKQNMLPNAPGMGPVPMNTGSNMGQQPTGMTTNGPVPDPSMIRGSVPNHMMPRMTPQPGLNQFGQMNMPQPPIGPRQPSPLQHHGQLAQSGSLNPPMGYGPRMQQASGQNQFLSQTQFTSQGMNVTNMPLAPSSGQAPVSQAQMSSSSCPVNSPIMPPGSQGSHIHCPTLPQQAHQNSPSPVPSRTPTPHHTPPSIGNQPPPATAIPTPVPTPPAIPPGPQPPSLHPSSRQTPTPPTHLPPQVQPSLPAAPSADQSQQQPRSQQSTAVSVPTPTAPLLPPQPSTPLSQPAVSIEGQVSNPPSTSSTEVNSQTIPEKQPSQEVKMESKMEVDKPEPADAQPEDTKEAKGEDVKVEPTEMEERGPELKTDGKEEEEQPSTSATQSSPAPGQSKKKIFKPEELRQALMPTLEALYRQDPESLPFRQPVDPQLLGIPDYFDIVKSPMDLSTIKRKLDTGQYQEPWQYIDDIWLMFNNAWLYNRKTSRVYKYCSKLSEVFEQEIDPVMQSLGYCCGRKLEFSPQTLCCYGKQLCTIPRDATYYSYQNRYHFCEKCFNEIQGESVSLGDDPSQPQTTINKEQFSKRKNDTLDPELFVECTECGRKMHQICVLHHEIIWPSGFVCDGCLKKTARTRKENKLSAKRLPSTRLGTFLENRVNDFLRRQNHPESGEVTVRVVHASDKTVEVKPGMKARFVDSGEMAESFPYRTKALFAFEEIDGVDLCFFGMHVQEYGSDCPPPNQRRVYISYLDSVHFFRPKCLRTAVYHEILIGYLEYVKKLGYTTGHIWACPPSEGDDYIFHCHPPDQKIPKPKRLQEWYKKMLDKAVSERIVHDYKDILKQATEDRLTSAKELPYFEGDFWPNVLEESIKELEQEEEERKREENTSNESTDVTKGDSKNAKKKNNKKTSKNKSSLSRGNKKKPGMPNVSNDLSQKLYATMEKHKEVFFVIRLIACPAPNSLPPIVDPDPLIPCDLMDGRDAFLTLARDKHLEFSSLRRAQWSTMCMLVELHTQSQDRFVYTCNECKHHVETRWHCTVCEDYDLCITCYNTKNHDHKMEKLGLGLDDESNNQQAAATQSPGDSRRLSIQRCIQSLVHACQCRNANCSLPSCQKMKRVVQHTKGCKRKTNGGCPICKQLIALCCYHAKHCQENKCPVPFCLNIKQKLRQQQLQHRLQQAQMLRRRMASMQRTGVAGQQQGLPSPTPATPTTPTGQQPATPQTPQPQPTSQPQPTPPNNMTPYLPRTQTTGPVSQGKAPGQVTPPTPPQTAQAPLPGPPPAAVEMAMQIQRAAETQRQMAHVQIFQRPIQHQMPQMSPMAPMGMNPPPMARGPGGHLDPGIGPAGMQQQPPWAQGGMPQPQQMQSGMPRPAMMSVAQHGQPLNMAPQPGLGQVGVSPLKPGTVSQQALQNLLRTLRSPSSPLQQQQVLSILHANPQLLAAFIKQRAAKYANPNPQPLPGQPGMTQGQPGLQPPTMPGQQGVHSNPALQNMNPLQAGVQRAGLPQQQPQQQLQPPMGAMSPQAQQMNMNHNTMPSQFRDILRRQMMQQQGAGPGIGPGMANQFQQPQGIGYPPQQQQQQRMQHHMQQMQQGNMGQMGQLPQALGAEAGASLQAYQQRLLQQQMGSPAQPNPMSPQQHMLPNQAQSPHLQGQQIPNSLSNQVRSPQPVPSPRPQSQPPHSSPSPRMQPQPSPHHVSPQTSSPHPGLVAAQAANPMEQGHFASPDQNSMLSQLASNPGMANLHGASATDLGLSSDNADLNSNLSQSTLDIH

For `CC1=NN(c2ccc(C(=O)O)cc2)C(=O)/C1=C\c1ccc(-c2cc(C)c(C)cc2[N+](=O)[O-])o1` [p300i, 4-(4-((5-(4,5-dimethyl-2-nitrophenyl)furan-2-yl)methylene)-3-methyl-5-oxo-4,5-dihydro-1H-pyrazol-1-yl)benzoic acid], the “cerebral Aβ plaque load” value ([1]; 10-month old AD-Tg mice, p300i for 1 week, examined 3 weeks later) was “significant reduction”, the “reduction of cerebral plaque load” value ([1]; single course of p300i, examined 2 months later) was “evident even two months after a single course of treatment” and the “reduction of cerebral plaque load” value ([1]; two courses of p300i with 1-month interval, compared with single course) was “stronger”. For the same compound, the “cerebral sAβ (Aβ1-40/Aβ1-42) levels” value ([2]; one course of p300i) was “effective in reducing cerebral sAβ”, the “effect on sAβ1-42” value ([2]; repeated courses of p300i compared with one course) was “stronger” and the “cerebral sAβ (Aβ1-40/Aβ1-42) levels” value ([2]; two courses of p300i with interval of 1 month) was “effective in reducing cerebral sAβ”. The “IFN-γ-expressing cells in the CP” value [3] was “elevated levels; also recorded: elevation”, the “IFN-γ-expressing cells in the spleen” value [3] was “elevated levels; also recorded: elevation” and the “effect on Treg suppressive activities” value [4] was “affect Treg suppressive activities while leaving protective T effector cell responses intact”.
